Columns and labels:
Experiment in all cases: KINOMEscan competition binding
Conditions in all cases: compound 10.0 µM
ITK (human) = ITK (human) (UniProt Q08881)
MATK (human) = MATK (human) (UniProt P42679)
CAMKK1 (human) = CAMKK1 (human) (UniProt Q8N5S9)
AAK1 (human) = AAK1 (human) (UniProt Q2M2I8)
ROCK2 (human) = ROCK2 (human) (UniProt O75116)
SIK2 (human) = SIK2 (human) (UniProt Q9H0K1)
MARK2 (human) = MARK2 (human) (UniProt Q7KZI7)
AKT1 (human) = AKT1 (human) (UniProt P31749)
FRK (human) = FRK (human) (UniProt P42685)
STK17A (human) = STK17A (human) (UniProt Q9UEE5)
NEK5 (human) = NEK5 (human) (UniProt Q6P3R8)
STK24 (human) = STK24 (human) (UniProt Q9Y6E0)
ACVR1 (human) = ACVR1 (human) (UniProt Q04771)
CDK4 CCND3 (human) = CDK4 CCND3 (human) (UniProt P11802+P30281)
MAP3K1 (human) = MAP3K1 (human) (UniProt Q13233)
FGFR4 (human) = FGFR4 (human) (UniProt P22455)
STK4 (human) = STK4 (human) (UniProt Q13043)
Chain of STK4 (human) (Q13043 whole entry, looked up): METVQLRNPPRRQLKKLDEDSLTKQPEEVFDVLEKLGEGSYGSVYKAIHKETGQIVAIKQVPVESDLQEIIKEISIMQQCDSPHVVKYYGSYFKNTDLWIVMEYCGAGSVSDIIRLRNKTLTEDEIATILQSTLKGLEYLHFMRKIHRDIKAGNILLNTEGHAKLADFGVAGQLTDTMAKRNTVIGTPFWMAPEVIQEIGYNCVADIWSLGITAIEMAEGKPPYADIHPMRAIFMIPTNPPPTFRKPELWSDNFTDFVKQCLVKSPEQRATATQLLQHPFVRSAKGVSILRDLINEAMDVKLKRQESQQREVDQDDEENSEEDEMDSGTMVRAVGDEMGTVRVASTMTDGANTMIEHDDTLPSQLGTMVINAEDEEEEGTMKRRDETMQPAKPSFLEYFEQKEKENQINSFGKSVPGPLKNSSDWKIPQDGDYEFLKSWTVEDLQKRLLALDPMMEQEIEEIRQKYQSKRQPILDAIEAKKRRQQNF

EPHB1 (human) = EPHB1 (human) (UniProt P54762)
CDK13 (human) = CDK13 (human) (UniProt Q14004)
MAP3K3 (human) = MAP3K3 (human) (UniProt Q99759)
Chain of MAP3K3 (human) (Q99759 whole entry, looked up): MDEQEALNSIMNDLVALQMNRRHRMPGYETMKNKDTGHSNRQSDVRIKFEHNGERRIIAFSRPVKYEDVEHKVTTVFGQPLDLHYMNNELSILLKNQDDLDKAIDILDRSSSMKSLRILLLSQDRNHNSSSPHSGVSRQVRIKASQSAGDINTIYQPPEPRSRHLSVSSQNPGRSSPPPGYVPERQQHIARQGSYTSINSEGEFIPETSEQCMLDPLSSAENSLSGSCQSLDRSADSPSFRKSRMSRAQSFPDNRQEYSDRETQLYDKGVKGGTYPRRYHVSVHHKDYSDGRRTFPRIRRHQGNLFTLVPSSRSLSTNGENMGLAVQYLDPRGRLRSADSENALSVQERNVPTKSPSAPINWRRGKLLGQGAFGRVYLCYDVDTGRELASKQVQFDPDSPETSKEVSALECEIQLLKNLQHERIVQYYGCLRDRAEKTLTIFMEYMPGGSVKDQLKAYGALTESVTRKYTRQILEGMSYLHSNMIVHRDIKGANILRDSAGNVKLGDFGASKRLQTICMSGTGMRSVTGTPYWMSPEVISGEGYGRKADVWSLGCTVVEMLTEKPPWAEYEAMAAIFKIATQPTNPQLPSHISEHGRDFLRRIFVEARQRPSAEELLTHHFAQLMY

MINK1 (human) = MINK1 (human) (UniProt Q8N4C8)
CAMKK2 (human) = CAMKK2 (human) (UniProt Q96RR4)
FGFR3 (human) = FGFR3 (human) (UniProt P22607)
[1] = target: JAK2 JH1 catalytic (human) (UniProt O60674)
Chain of JAK2 JH1 catalytic (human) (O60674 whole entry, looked up): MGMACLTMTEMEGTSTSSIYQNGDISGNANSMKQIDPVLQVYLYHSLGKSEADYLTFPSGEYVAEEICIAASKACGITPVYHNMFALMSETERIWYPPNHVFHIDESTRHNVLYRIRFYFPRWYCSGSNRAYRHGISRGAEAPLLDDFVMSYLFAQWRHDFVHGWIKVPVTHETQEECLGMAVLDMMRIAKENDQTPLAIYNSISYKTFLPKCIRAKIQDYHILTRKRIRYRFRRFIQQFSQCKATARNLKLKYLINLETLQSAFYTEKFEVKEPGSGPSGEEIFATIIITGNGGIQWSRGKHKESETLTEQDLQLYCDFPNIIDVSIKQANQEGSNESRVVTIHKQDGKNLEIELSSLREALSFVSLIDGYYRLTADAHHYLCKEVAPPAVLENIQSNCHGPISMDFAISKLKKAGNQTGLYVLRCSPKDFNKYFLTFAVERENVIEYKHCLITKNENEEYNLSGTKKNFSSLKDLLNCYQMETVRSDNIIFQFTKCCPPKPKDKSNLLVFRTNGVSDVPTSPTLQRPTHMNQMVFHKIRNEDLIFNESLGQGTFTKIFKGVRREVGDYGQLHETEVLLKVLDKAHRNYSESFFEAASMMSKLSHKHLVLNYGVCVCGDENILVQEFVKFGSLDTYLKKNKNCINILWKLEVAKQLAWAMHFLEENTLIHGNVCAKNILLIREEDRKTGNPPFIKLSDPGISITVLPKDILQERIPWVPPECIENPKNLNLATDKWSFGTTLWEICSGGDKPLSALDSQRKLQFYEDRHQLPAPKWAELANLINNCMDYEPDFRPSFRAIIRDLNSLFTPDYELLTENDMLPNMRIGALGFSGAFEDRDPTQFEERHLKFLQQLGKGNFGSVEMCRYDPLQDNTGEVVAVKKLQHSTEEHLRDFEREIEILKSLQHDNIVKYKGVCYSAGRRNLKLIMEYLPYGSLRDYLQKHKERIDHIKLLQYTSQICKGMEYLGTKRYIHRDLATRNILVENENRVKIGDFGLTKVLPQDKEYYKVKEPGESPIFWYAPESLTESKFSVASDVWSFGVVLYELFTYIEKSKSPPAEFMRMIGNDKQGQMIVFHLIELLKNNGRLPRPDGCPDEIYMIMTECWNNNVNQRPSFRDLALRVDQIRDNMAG

DSTYK (human) = DSTYK (human) (UniProt Q6XUX3)
PAK7 (human) = PAK7 (human) (UniProt Q9P286)
NEK7 (human) = NEK7 (human) (UniProt Q8TDX7)
Chain of NEK7 (human) (Q8TDX7 whole entry, looked up): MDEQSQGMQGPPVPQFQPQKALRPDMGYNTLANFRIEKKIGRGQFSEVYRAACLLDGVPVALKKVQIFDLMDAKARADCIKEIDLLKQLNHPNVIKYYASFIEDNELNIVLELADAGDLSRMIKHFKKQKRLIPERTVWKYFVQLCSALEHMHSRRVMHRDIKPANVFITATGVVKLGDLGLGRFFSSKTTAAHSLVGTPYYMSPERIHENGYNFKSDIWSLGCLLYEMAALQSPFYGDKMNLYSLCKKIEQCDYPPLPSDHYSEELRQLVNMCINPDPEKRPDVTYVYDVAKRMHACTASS

NEK6 (human) = NEK6 (human) (UniProt Q9HC98)
ACVRL1 (human) = ACVRL1 (human) (UniProt P37023)
RIOK2 (human) = RIOK2 (human) (UniProt Q9BVS4)
MUSK (human) = MUSK (human) (UniProt O15146)
MAPK13 (human) = MAPK13 (human) (UniProt O15264)
LTK (human) = LTK (human) (UniProt P29376)
CRK2 (P.falciparum) = CRK2 (P.falciparum) (UniProt P61075)
[2] = target: TYK2 JH2 pseudokinase (human) (UniProt P29597)
PLK2 (human) = PLK2 (human) (UniProt Q9NYY3)
EPHB4 (human) = EPHB4 (human) (UniProt P54760)
MAP3K4 (human) = MAP3K4 (human) (UniProt Q9Y6R4)
MAP3K9 (human) = MAP3K9 (human) (UniProt P80192)
PIK3C2G (human) = PIK3C2G (human) (UniProt O75747)

Chain of ROCK2 (human) (O75116 whole entry, looked up): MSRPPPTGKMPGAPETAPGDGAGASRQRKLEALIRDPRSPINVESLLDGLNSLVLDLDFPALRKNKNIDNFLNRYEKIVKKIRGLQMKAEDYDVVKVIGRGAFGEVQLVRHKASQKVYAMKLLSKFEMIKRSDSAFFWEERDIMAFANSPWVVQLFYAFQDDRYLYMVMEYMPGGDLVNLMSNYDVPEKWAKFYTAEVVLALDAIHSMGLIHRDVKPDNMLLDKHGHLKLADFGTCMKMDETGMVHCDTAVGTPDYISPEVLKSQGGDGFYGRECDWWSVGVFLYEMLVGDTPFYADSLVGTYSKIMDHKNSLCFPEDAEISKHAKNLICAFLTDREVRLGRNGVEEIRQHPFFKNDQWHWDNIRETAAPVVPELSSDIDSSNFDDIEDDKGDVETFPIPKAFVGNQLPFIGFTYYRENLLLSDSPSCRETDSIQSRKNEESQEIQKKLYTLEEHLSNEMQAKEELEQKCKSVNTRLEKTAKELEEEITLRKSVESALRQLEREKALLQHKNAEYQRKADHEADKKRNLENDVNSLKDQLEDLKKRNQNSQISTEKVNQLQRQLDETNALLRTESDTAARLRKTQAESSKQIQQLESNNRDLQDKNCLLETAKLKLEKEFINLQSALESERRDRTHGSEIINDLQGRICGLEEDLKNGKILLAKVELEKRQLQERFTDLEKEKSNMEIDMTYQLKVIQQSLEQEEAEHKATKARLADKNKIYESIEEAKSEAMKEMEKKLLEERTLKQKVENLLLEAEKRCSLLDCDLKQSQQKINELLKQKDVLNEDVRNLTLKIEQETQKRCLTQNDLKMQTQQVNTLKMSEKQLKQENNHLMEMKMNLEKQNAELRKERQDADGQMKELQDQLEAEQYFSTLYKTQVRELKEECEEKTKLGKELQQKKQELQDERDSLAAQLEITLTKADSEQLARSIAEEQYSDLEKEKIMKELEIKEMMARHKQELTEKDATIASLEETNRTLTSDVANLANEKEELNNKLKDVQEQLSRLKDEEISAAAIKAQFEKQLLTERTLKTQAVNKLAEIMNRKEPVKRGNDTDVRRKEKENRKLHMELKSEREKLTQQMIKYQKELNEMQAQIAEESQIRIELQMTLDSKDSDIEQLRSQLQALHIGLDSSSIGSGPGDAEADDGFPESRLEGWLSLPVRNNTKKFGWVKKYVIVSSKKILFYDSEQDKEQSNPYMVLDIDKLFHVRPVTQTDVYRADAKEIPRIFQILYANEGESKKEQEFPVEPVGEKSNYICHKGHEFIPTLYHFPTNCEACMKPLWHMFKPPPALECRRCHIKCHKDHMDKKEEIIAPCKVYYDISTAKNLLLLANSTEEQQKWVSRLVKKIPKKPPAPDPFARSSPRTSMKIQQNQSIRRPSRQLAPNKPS
Chain of ITK (human) (Q08881 whole entry, looked up): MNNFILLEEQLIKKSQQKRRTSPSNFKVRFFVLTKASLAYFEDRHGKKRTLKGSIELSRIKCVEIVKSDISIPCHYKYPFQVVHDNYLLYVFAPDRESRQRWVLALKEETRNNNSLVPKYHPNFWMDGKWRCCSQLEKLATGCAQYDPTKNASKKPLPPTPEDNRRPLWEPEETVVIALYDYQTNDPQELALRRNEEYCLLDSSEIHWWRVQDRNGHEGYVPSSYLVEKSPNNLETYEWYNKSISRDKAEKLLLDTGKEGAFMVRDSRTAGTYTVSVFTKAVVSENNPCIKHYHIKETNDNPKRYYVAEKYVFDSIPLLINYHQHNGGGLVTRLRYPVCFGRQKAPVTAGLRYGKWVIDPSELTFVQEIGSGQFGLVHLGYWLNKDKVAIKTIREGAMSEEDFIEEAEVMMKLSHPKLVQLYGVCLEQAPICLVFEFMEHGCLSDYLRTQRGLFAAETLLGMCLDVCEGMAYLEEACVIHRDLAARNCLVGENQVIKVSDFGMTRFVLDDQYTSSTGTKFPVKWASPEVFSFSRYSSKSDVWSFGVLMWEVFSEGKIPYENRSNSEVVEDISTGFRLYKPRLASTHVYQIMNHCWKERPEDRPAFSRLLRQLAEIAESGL
Chain of MATK (human) (P42679 whole entry, looked up): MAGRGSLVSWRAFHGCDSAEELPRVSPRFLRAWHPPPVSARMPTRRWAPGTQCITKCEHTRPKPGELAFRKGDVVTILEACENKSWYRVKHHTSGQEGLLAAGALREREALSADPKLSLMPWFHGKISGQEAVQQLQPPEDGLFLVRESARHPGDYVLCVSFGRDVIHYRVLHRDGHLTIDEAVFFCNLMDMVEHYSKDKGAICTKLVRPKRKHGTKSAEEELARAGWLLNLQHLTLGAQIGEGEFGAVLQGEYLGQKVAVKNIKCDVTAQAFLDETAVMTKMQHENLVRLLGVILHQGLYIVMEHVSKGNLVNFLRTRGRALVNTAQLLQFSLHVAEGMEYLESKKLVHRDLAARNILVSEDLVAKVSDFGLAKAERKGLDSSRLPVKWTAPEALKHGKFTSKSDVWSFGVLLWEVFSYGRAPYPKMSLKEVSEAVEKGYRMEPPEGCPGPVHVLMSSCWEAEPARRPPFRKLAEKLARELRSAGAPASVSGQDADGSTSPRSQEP

| SMILES | kinase still bound, per cent of control (ITK (human)) | kinase still bound, per cent of control (MATK (human)) | kinase still bound, per cent of control (CAMKK1 (human)) | kinase still bound, per cent of control (AAK1 (human)) | kinase still bound, per cent of control (ROCK2 (human)) | kinase still bound, per cent of control (SIK2 (human)) | kinase still bound, per cent of control (MARK2 (human)) | kinase still bound, per cent of control (AKT1 (human)) | kinase still bound, per cent of control (NEK5 (human)) | kinase still bound, per cent of control (STK24 (human)) | kinase still bound, per cent of control (ACVR1 (human)) | kinase still bound, per cent of control (CDK4 CCND3 (human)) | kinase still bound, per cent of control (MAP3K1 (human)) | kinase still bound, per cent of control (STK4 (human)) | kinase still bound, per cent of control (CDK13 (human)) | kinase still bound, per cent of control (MAP3K3 (human)) | kinase still bound, per cent of control (MINK1 (human)) | kinase still bound, per cent of control (CAMKK2 (human)) | kinase still bound, per cent of control [1] | kinase still bound, per cent of control (DSTYK (human)) | further results |
| --- | --- | --- | --- | --- | --- | --- | --- | --- | --- | --- | --- | --- | --- | --- | --- | --- | --- | --- | --- | --- | --- |
| C=CC(=O)Nc1ccc(C(=O)c2sc(Nc3ccc(N4CCN(C)CC4)cc3OC)nc2N)cc1 | 74% | 25% | 3.3% | 11% | 24% | 72% | 78% | 100% | 100% | 71% | 100% | 0.55% | 100% | 100% | 100% | 65% | 3.5% | 5% | 74% | 4.7% | kinase still bound, per cent of control (FRK (human)): 48%; kinase still bound, per cent of control (STK17A (human)): 100%; kinase still bound, per cent of control (FGFR4 (human)): 26%; kinase still bound, per cent of control (EPHB1 (human)): 98%; kinase still bound, per cent of control (FGFR3 (human)): 78%; kinase still bound, per cent of control (PAK7 (human)): 71%; kinase still bound, per cent of control (NEK7 (human)): 100%; kinase still bound, per cent of control (NEK6 (human)): 73%; kinase still bound, per cent of control (ACVRL1 (human)): 100%; kinase still bound, per cent of control (RIOK2 (human)): 53%; kinase still bound, per cent of control (MUSK (human)): 100%; kinase still bound, per cent of control (MAPK13 (human)): 100%; kinase still bound, per cent of control (LTK (human)): 5.6%; kinase still bound, per cent of control (CRK2 (P.falciparum)): 92%; kinase still bound, per cent of control [2]: 66%; kinase still bound, per cent of control (PLK2 (human)): 81%; kinase still bound, per cent of control (EPHB4 (human)): 100%; kinase still bound, per cent of control (MAP3K4 (human)): 100%; kinase still bound, per cent of control (MAP3K9 (human)): 93%; kinase still bound, per cent of control (PIK3C2G (human)): 100% |
| CC(=O)c1c(C)c2cnc(Nc3ccc(N4CCNCC4)cn3)nc2n(C2CCCC2)c1=O | 71% | 46% | 20% | 11% | 36% | 63% | 28% | 92% | 27% | 16% | 80% | 2% | 87% | 74% | 47% | 4.2% | 7.6% | 20% | 0.65% | 5% | kinase still bound, per cent of control (PAK7 (human)): 35%; kinase still bound, per cent of control (NEK7 (human)): 60%; kinase still bound, per cent of control (NEK6 (human)): 69%; kinase still bound, per cent of control (RIOK2 (human)): 56%; kinase still bound, per cent of control (CRK2 (P.falciparum)): 19%; kinase still bound, per cent of control (PLK2 (human)): 14%; kinase still bound, per cent of control (EPHB4 (human)): 100%; kinase still bound, per cent of control (MAP3K9 (human)): 78%; kinase still bound, per cent of control (PIK3C2G (human)): 20% |
| CCc1nc(-c2cccc(C)c2)c(-c2ccnc(NC(=O)c3ccccc3)c2)s1 | 100% | 100% | 100% | 96% | 100% | 62% | 100% | 100% | 100% | 69% | 9.6% | 92% | 90% | 74% | 100% | 92% | 8.4% | 100% | 100% | 100% | kinase still bound, per cent of control (FRK (human)): 36%; kinase still bound, per cent of control (STK17A (human)): 81%; kinase still bound, per cent of control (FGFR4 (human)): 100%; kinase still bound, per cent of control (EPHB1 (human)): 83%; kinase still bound, per cent of control (FGFR3 (human)): 86%; kinase still bound, per cent of control (PAK7 (human)): 90%; kinase still bound, per cent of control (NEK7 (human)): 100%; kinase still bound, per cent of control (NEK6 (human)): 100%; kinase still bound, per cent of control (ACVRL1 (human)): 85%; kinase still bound, per cent of control (RIOK2 (human)): 92%; kinase still bound, per cent of control (MUSK (human)): 100%; kinase still bound, per cent of control (LTK (human)): 26%; kinase still bound, per cent of control (CRK2 (P.falciparum)): 100%; kinase still bound, per cent of control [2]: 57%; kinase still bound, per cent of control (PLK2 (human)): 100%; kinase still bound, per cent of control (EPHB4 (human)): 53%; kinase still bound, per cent of control (MAP3K4 (human)): 85%; kinase still bound, per cent of control (MAP3K9 (human)): 94%; kinase still bound, per cent of control (PIK3C2G (human)): 40% |

— the kinase profiling compilation of Christmann-Franck et al. (2016)
